Measured values reported in a melting point compilation (Tetko et al.; mined from patent text by program, amines drawn as free bases though some values may be those of a salt).
Residues, ends and D or L forms follow the SMILES beside them. *: point of attachment. NHPhenethyl = c1ccc(CCN*)cc1

| Structure (SMILES) | melting point [°C] |
| --- | --- |
| COC1(c2cncnc2SC)c2ccccc2CC1(C)C (configuration not stated) | 130 to 132 |
| CSc1ccc2c(c1)CC(C)(C)C(=O)N2 | 154 |
| CN1CCc2c(sc3c2C(=O)N(CCCl)CN3)C1 | 159 to 161 |
| COCCC1(C(=O)N[C@@H](Cc2ccc(NC(=O)c3c(Cl)cccc3Cl)cc2)C(=O)O)CCCC1 | 136 to 140 |
| CCCCn1c(=O)n(Cc2ccccc2)c(=O)c2c(Cl)cc(Cl)cc21 | 108 to 110 |
| CCOC(=O)c1c(C(C)(C)O)nc(CO)n1Cc1ccc(-c2ccccc2-c2nnn[nH]2)cc1 | 98 to 99 |
| O=C1NN=C(c2ccc(NC(=O)C(F)(F)F)cc2)C2CC12 (configuration not stated) | 242 to 243 |
| NS(=O)(=O)c1sc2ccccc2c1CCO | 162 to 164 |
| CCOC(=O)c1cn(-c2nc(SC(C)C)nc(C(F)(F)F)c2I)nc1C(F)(F)F | 107 to 108 |
| COc1cn(-c2ccncc2)nc(-c2ccnn2-c2ccccc2)c1=O | 195 to 197 |
| O=C1CCC(C(=O)OCc2ccccn2)N1 (configuration not stated) | 130 to 131 |
| CC(C)Cc1cnc(O)c([N+](=O)[O-])c1 | 161 to 163 |
| O=C(O)c1cccc(-c2nnc(-c3ccc(C(F)(F)F)cc3)o2)c1 | 239 to 240 |
| CN(C)c1ccc([N+](=O)[O-])c(C(OC(=O)C(Cl)(Cl)Cl)c2ccccc2)c1[N+](=O)[O-] (configuration not stated) | 129 to 130 |
| CNC(=O)Oc1ccc(NC(=O)COC)c(C)c1 | 130 to 132 |
| CN(C)C1(c2cccc(F)c2)CCC(=CC(=O)NCCCc2ccccc2)CC1 (configuration not stated) | 129 to 131 |
| COc1ccccc1-n1c(=O)[nH]c2c(C(N)=O)nc(NC[C@H]3CCCN3)nc21 | 155 to 157 |
| CCCC(Nc1ccc(OCc2ccccc2)cc1)C(=O)OCC (configuration not stated) | 68 |
| CC(Cl)Cn1cc(-c2ccccc2)c2ccccc2c1=O (configuration not stated) | 141 |
| CNC(=O)C(Cc1c[nH]c2ccccc12)NC(=O)C(CC(C)C)C(CC(=O)OC)SC(C)=O (configuration not stated) | 134 to 136 |
| CCn1nc(C(F)(F)F)cc1NC(=O)c1c(C)cccc1C(=O)NC(C)C | 223 to 226 |
| O=C(O)C1=Cc2cc(S(=O)(=O)NCCc3ccccc3)ccc2OC1C(F)(F)F (configuration not stated) | 187 to 190 |
| CCOC(=O)c1ccc2cc[nH]c2c1 | 72 to 75 |
| Cc1cc2c(cc1C)-n1c(n[nH]c1=O)C=C(c1ccc(-n3c(C)nc4cnccc43)cc1)N2 | > 325 |
| CCCCCCCCCCCCCCOC(=O)CNC(=O)OCc1ccccc1 | 57 to 58 |
| COc1cc2c3c(c1OC)C=NCC3c1ccccc1CC2 (configuration not stated) | 131 to 132 |

| Structure (SMILES) | melting point [°C] |
| --- | --- |
| CCCn1c(=Nc2ccc(C(=O)OCC)cc2)sc2ncccc2c1=O | 115 to 117 |
| O=C(c1ccc(SCCO)c([N+](=O)[O-])c1)c1ccc(SCCO)c([N+](=O)[O-])c1 | 193 to 197 |
| COc1ccc2c(-c3cc(F)ccc3F)noc2c1 | 121 to 122 |
| Clc1nc(-c2cccnc2)sc1NC1CC1 | 56 to 60 |
| COC(=O)C(C(=O)OC)c1cc([N+](=O)[O-])ccc1C(=O)O | 153 |
| O=c1c2c(Cc3ccccc3)n[nH]c2c2cccnc2n1-c1cccc(OC(F)(F)F)c1 | 249 to 251 |
| NNC1=Nc2ccc(I)cc2C(c2ccccc2F)=NC1 | 179 to 181 |
| CC(=O)N(N=Cc1c(Cl)cccc1Cl)c1nncn1N(C)C(C)=O | 167 to 169 |
| COC(=O)c1cc(CBr)cc(C2(C#N)CC2)c1 | 78.3 to 79.8 |
| Cc1noc(NS(=O)(=O)c2ccccc2-c2ccc(-c3ccccn3)cc2)c1C | 85 to 90 |
| CCOC(=O)C(=O)Nc1cc(C)c(C)cc1[N+](=O)[O-] | 109 |
| COc1nnc2n1-c1sc(CCC(=O)N3CCOCC3)cc1C(c1ccccc1Cl)=NC2 | 163 to 164 |
| O=C(O)CCCNC(=O)c1ccccc1NC(=O)c1ccccc1[N+](=O)[O-] | 142 to 144 |
| C=CCOC(=O)c1ccccc1OS(=O)(=O)NC(=O)Nc1nc(OC)cc(OC)n1 | 110 to 112 |
| CCCCCCC/C=C/C(=O)NCCN1CCCC1 | 56 to 58 |
| CCCc1nnc2c3cccc(Br)c3ccn12 | 197 to 199 |
| CCOc1cc(C(CC(=O)O)N2Cc3ccccc3C2=O)ccc1OC (configuration not stated) | 194 |
| CC1(C)CCOc2cc(O)ccc21 | 88 to 88.5 |
| CSc1nc(N)c2ncn(C3CCCCC3)c2n1 | 222 to 224 |
| CC1=C(C(=O)OC(C)C)C(c2cccc([N+](=O)[O-])c2)n2c(cc(=O)n2Cc2ccccc2)N1 (configuration not stated) | 184 to 185 |
| COc1ccc(Cl)cc1C(=O)NCCc1ccc(Br)c(S(=O)(=O)N=CN(C)C)c1 | 150 to 152 |
| CC1(O)CC(=O)OC(c2ccc(-c3ccccc3)cc2)C1 (configuration not stated) | 151 to 153 |
| S=C(Nc1c(Cl)cccc1Cl)N1CCN(c2cnccn2)CC1 | 225 to 227 |
| ClCCN(CCCl)CCCCOc1cccc(Nc2c3ccccc3nc3ccccc23)c1 | 126 to 127 |
| COC(=O)[C@@H]1COC(c2ncn3c2CN(C)C(=O)c2ccccc2-3)=N1 | 190 to 192 |
| CNC(=O)C(Cc1ccc(OC)cc1)NC(=O)C(C)(CC(C)C)c1ccc(Cl)cc1S (configuration not stated) | 174 to 178 |

| Structure (SMILES) | melting point [°C] |
| --- | --- |
| Cc1ccc(C(=O)c2noc(CC(N)=O)n2)cc1 | 169 to 171 |
| CC(=O)Nc1scc(C)c1C(=O)c1ccccc1 | 106 to 107 |
| CCNC(=C[N+](=O)[O-])NCCSCc1[nH]cnc1C | 171 to 172 |
| CCN(C)c1nc(-c2cc(OC)cc(OC)c2)nc2sc(C#N)c(C)c12 | 145 to 148 |
| NC(=O)c1cc2c(Oc3ccc(Cl)c(F)c3)cncc2s1 | 227 to 228 |
| CC(=O)Oc1ccc(-c2c3ccccc3c(Br)c3sc(C)c(C)c23)cc1 | 190 to 191 |
| Oc1ccc(-c2nnc(CCCCCCCc3ccccc3)o2)cc1 | 138 to 140 |
| Nc1nc(NCCO)nc(N2CCOCC2)n1 | 159 to 161 |
| O=C(O)Cc1ccc2c(c1)Cc1cccnc1O2 | 218 |
| O=C(c1ccc(-c2ccc3nnn(Cc4ccc5ncccc5c4)c3n2)cc1)N1CCN(CCO)CC1 | 158 to 160 |
| Nc1ccc(-c2ccc(Cl)cc2)cn1 | 122 to 124 |
| c1cc(-c2nccs2)cc(-n2cnc3cc(-c4ccoc4)ccc32)c1 | 102 to 105 |
| N#CC(Cl)Cc1cccc([N+](=O)[O-])c1 (configuration not stated) | 90 |
| CN(C(=O)c1cccc(S(=O)(=O)N(C)c2ccc(Br)cc2)c1)c1ccc(Br)cc1F | 136 to 137 |
| O=C(O)c1cc(Cl)c(Cl)c(-c2ccc(Cl)cc2)n1 | 229 |
| CCCc1c(OCCCOc2ccc3c(c2CCC)OC(C)(CCC(=O)OC)CC3=O)ccc(C(C)=O)c1O (configuration not stated) | 73 to 74.5 |
| O=C1C(=Cc2c[nH]c3ccccc23)N(Cc2ccccc2)C(=O)N1Cc1cc(C(F)(F)F)cc(C(F)(F)F)c1 | 154 to 156 |
| CC[C@H](C)[C@H](NC(=O)[C@@H](N)CS)C(=O)NCCc1ccccc1 (H-Cys-Ile-NHPhenethyl) | 156 to 159 |
| Cn1ccnc1S(=O)CC(=O)C12CC3CC(CC(C3)C1)C2 (configuration not stated) | 86 to 89 |
| CCCSc1ccc(N)c(C(=O)O)c1 | 91 to 93 |
| CCCCc1nc2c(N)nc3ccccc3c2n1CCCNC(=O)Nc1ccccc1 | 191 to 192 |
| Cc1cc(CCCCCOc2ccc(C3=NCCO3)cc2C(=O)O)on1 | 170 to 171 |
| COc1ccc(-c2ccc(C(=O)NO)cc2)cc1OC1CCCC1 | 181 to 183 |
| CCCCCCCCCCCCCCCCCCOc1ccccc1NC(=O)CC(=O)C(C)(C)SCC | 60 to 62 |
| CNC(=O)Cc1c(C(=O)c2ccccc2)[nH]c2cc(Cl)ccc12 | 242 to 246 |
| Fc1ccc(-c2c(-c3ccncc3)nn3nccnc23)cc1 | 177 to 178 |

| Structure (SMILES) | melting point [°C] |
| --- | --- |
| O=c1c2ccccc2c2cnn(-c3ccccc3)c2n1CCCl | 157 to 160 |
| C=CCC(CC=C)(C(=O)O)S(=O)(=O)c1ccc(OC)cc1 | 114 to 116 |
| CCC(C)N(C)C(=O)c1cc2ccsc2c(-c2ccccc2)n1 (configuration not stated) | 117 |
| CC1Cc2ccc(Cl)cc2C(c2ccc([N+](=O)[O-])cc2)=NN1C(=S)Cl (configuration not stated) | 210 to 214 |
| Cc1ccc2c(C=O)c3ccccc3c(C=O)c2c1 | 150 to 152 |
| CCn1cc(C(=O)O)c(=O)c2cc(Cl)c(N3CCOCC3)cc21 | 266 |
| CC(=NOC(=O)N(C)C)C1=CCCN(C)C1 | 54 to 55 |
| O=C1CCC(c2ccc3[nH]c(-c4ccc(-n5ccnc5)cc4)cc3c2)=NN1 | 295 to 298 |
| O=C(O)c1cccc(NC(=O)[C@H](CO)NS(=O)(=O)c2ccc(Cl)cc2)c1 | 220 to 224 |
| CCn1ncc2c(NN=C(C)C)c(C(N)=O)cnc21 | 217 to 218 |
| N#CC(C#N)=CN(N=C(C#N)C#N)c1ccc(F)cc1F | 140 to 142 |
| CC1CCN(c2ccc([N+](=O)[O-])cc2C(=O)c2ccc(Cl)c(Cl)c2)CC1 | 116 |
| NC(=O)NCc1ccc(Nc2n[nH]c3ncnc(Nc4cccc(Cl)c4)c23)cc1 | > 280 |
| O=C1C=C(Nc2c(Br)cccc2Br)CCN1 | 240 to 243 |
| CC1(C)c2cc(I)ccc2-c2ccc(I)cc21 | 195 |
| CCN(CC)c1ccc2c(c1)Oc1cc(N(Cc3ccccc3)C(C)=O)c3ccccc3c1N2C(C)=O | 202 to 204 |
| CCCCc1cc(Cn2cnc3c(N)nc4ccccc4c32)no1 | 201 to 203 |
| Cc1cc(SC(C)C)c(NC(=O)CSc2nc3ccccc3s2)c(SC(C)C)n1 | 117 to 118 |
| CC(=O)Nc1ccc(O)cc1F | 124 |
| COc1cccc(CN(CCC(=O)O)c2nc(NC(=O)Nc3ccccc3OC)nc(Oc3ccc4ccccc4c3)n2)c1 | 189 to 194 |
| CCOCc1cc2ccccc2oc1=Nc1ccc(Br)cc1 | 73 to 74 |
| Clc1cc(Cl)c(C(Cl)Cl)nc1Cl | 61 to 62 |
| NC(=O)c1cc(C(O)CNCCCn2nnc3ccccc32)ccc1O (configuration not stated) | 154 to 155 |
| COc1cc(-c2n[nH]c(N)n2)c(OC)cc1C | 248 |
